Reference: patent US12012398B2, “Bicyclic compounds as androgen receptor modulators” (NIDO BIOSCIENCES, INC., priority 2021, dated 2024)
pIC50: −log10 of the molar value.

System: LNCaP cells expressing ARR2PB-FireflyLuc and CMV-RenillaLuc
Assay: LNCaP ARR2PB-FireflyLuc reporter assay, antagonist mode
Assay type: cell-based
Details: Homo sapiens, LNCaP, 48 h, +0.5 nM DHT, 48 h at 37° C., read-out: LNCap Antagonist Archive: IC50
How it was run: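 LNCaP cells carrying ARR2PB-firefly and CMV-Renilla luciferase reporters were exposed to compound with 0.5 nM DHT for 48 h at 37° C. Remaining activity was scaled between 0.5 nM DHT alone (high) and 10 uM enzalutamide + 0.5 nM DHT (low). IC50 from non-linear regression, reported in bins A–D.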

Structure (SMILES) | pIC50
Cn1c(C(=O)NC23CC(C)(C2)C3)cc2ccnc(Cl)c21 [Example 142, 7-chloro-1-methyl-N-{3-methylbicyclo[1.1.1]pentan-1-yl}pyrrolo[2,3-c]pyridine-2-carboxamide] | 5.00 to 6.00
Cn1c(C(=O)NC2CCC2)cc2ccnc(Cl)c21 [Example 143, 7-chloro-N-cyclobutyl-1-methylpyrrolo[2,3-c]pyridine-2-carboxamide] | 6.00 to 7.00
Cn1c(C(=O)NC2(C)CCC2)cc2ccnc(Cl)c21 [Example 147, 7-chloro-1-methyl-N-(1-methylcyclobutyl)pyrrolo[2,3-c]pyridine-2-carboxamide] | 6.00 to 7.00
Cn1c(C(=O)NC(C)(C)C)cc2ccnc(Cl)c21 [Example 148, N-tert-butyl-7-chloro-1-methylpyrrolo[2,3-c]pyridine-2-carboxamide] | 6.00 to 7.00
Cn1c(C(=O)NC2CC3(CC3)C2)cc2ccnc(Cl)c21 [Example 149, 7-chloro-1-methyl-N-{spiro[2.3]hexan-5-yl}pyrrolo[2,3-c]pyridine-2-carboxamide] | 5.00 to 6.00
Cn1c(C(=O)NC2CC3(CCC3)C2)cc2ccnc(Cl)c21 [Example 150, 7-chloro-1-methyl-N-{spiro[3.3]heptan-2-yl}pyrrolo[2,3-c]pyridine-2-carboxamide] | 5.00 to 6.00
CCn1c(C(=O)N(C)C23CC(F)(C2)C3)cc2ccnc(C#N)c21 [Example 151, 7-cyano-1-ethyl-N-(3-fluorobicyclo[1.1.1]pentan-1-yl)-N-methyl-1H-pyrrolo[2,3-c]pyridine-2-carboxamide] | 6.00 to 7.00
Cc1nccc2cc(C(=O)NC34CCC(C3)C4)n(C)c12 [Example 152, N-(bicyclo[2.1.1]hexan-1-yl)-1,7-dimethyl-1H-pyrrolo[2,3-c]pyridine-2-carboxamide] | 5.00 to 6.00
CCn1c(C(=O)N(C)C23CC(F)(C2)C3)cc2ccnc(Cl)c21 [Example 153, 7-chloro-1-ethyl-N-(3-fluorobicyclo[1.1.1]pentan-1-yl)-N-methyl-1H-pyrrolo[2,3-c]pyridine-2-carboxamide] | > 7.00
Cn1c(C(=O)NC23CC(F)(C2)C3)cc2ccnc(C(F)(F)F)c21 [Example 154, N-(3-fluorobicyclo[1.1.1]pentan-1-yl)-1-methyl-7-(trifluoromethyl)-1H-pyrrolo[2,3-c]pyridine-2-carboxamide] | 5.00 to 6.00
Cn1c(C(=O)NC23CC(C2)C3)cc2ccc(C#N)cc21 [Example 155, N-(bicyclo[1.1.1]pentan-1-yl)-6-cyano-1-methyl-1H-indole-2-carboxamide] | 5.00 to 6.00
Cn1c(C(=O)NC23CC(C2)C3)cc2ccncc21 [Example 156, N-(bicyclo[1.1.1]pentan-1-yl)-1-methyl-1H-pyrrolo[2,3-c]pyridine-2-carboxamide] | 6.00 to 7.00
Cn1c(C(=O)NC23CC(C2)C3)cc2ccc(F)cc21 [Example 157, N-(bicyclo[1.1.1]pentan-1-yl)-6-fluoro-1-methyl-1H-indole-2-carboxamide] | 5.00 to 6.00
O=C(NC12CC(F)(C1)C2)c1cc2c(Cl)nccc2s1 [Example 158, 4-chloro-N-(3-fluorobicyclo[1.1.1]pentan-1-yl)thieno[3,2-c]pyridine-2-carboxamide] | 6.00 to 7.00
COCCN(C(=O)c1cc2ccc(F)cc2[nH]1)c1ccc(C#N)cn1 [Example 159] | 5.00 to 6.00
COCCN(C(=O)c1cc2ccc(F)cc2[nH]1)c1ccc(Cl)cn1 [Example 160] | 5.00 to 6.00
COCCN(C(=O)c1cc2ccc(F)cc2[nH]1)c1ncccn1 [Example 161] | 5.00 to 6.00
